Among the data in the METLIN SMRT retention time set (Domingo-Almenara et al. 2019) are RP-LC retention time values, retold here.

A short description of this data set: gradient 5% acetonitrile 3 min, to 50% in 2 min, to 85% in 15 min, held 3 min, 100 µL/min. To be noted: column: Zorbax Extend-C18 2.1 x 50 mm; eluents: water / acetonitrile, 0.1% formic acid. The method, boiled down:
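Each retention time is based on an adduct peak selected computationally and verified by manual inspection. Measurements used HPLC–quadrupole time-of-flight mass spectrometry in positive and negative ionization mode on mixtures of ~100 pure standards. Chromatography ran on a Zorbax Extend-C18 column (2.1 × 50 mm, 1.8 μm) at 100 μL/min with water and acetonitrile, each containing 0.1% formic acid, and dead and dwell volumes of 40 μL and 900 μL.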
Regarding `CCc1ccc(S(=O)(=O)N2CCC(c3cc(N)on3)CC2)cc1`, the RP-LC retention time was 813 s.

Turning to `CC(NC(=O)Cn1cc(C(=O)C(=O)N2CCOCC2)c2ccccc21)c1ccc2c(c1)OCCCO2` (stereo not drawn), the RP-LC retention time was 787 s.

`Cc1ccsc1C(=O)Nc1ccc(OCc2nnc(-c3ccc(Cl)cc3)o2)cc1` showed an RP-LC retention time of 1010 s.

For `Cc1cc(C)c(C(=O)N2CCCC(C(=O)NC3CCCCC3)C2)[nH]1` (stereo not drawn), the RP-LC retention time stood at 809 s.

`O=C(NCCc1ccccc1)N(C1CCOCC1)C1CCN(Cc2cccnc2)CC1` displayed an RP-LC retention time of 604 s.

The molecule `O=C(NC1CCCCC1)N1CCC(c2noc(-c3cccnc3)n2)C1` (stereo not drawn) showed an RP-LC retention time of 749 s.

The molecule `Cc1cccc(CN2C[C@@H]3C(=O)N(Cc4ccc5c(c4)OCO5)C(=O)[C@@H]3C2)c1` had an RP-LC retention time of 734 s.

Molecule `Cc1ccc(C)c(NC(=O)N2CCCC(Cn3c(C4CC4)nc4cccnc43)C2)c1` (stereo not drawn) gave an RP-LC retention time of 680 s.

For `Cc1nc2c(C)cccn2c(=O)c1NC(=O)COc1ccc(Cl)cc1Cl`, the RP-LC retention time was found to be 838 s.

Regarding `CCCNC(=O)C1CCN(c2nc3ccc(-c4ccccc4)nc3s2)CC1`, the RP-LC retention time turned out to be 906 s.

With `O=C(Nc1ccc2c(c1)OCCO2)C1CCCN(c2cnc3nccnc3c2)C1` (stereo not drawn), the RP-LC retention time was 689 s.

Molecule `O=C(NCCc1cccs1)c1c(O)c2cccnc2n(-c2cccc(F)c2)c1=O` registered an RP-LC retention time of 1180 s.

The molecule `CCOc1ccccc1-c1noc(Cn2c(=O)n(Cc3cccc(OC)c3)c(=O)c3sccc32)n1` showed an RP-LC retention time of 1110 s.

Consider `Clc1cccc(-c2nc3ccc(Cl)cn3c2Nc2ccc3c(c2)OCO3)c1`, for which the RP-LC retention time is 978 s.

`O=C(c1csc(-c2ccc(N3CCOCC3)nc2)n1)N1CCOCC1` showed an RP-LC retention time of 626 s.

As to `CCN1C(=O)C(C)(C(=O)Nc2cc(OC)cc(OC)c2)Oc2cccnc21` (stereo not drawn), the RP-LC retention time stood at 868 s.

Regarding `CC(C)c1ccc(N2C(=O)CN(S(C)(=O)=O)CC2(C)C(=O)NCc2ccc(F)cc2)cc1` (stereo not drawn), the RP-LC retention time came out at 836 s.

Turning to `Cc1c(C(=O)N2CCCC(C)C2)sc2ncn(CC(=O)N3CC(C)CC(C)C3)c(=O)c12` (stereo not drawn), the RP-LC retention time was 966 s.

On to `COc1ccc(-c2noc(C3CCCN3C(=O)c3cccnc3)n2)cc1` (stereo not drawn), for which the RP-LC retention time was determined as 725 s.

Molecule `CC(Cc1ccco1)NC(=O)Cn1c(=O)c(=O)n(C)c2ncccc21` (stereo not drawn) yielded an RP-LC retention time of 688 s.

Turning to `O=C(NC1CCN(c2cc(-c3ccc(F)cc3)[nH]n2)C1)c1ccc(F)cc1Cl` (stereo not drawn), the RP-LC retention time was found to be 740 s.

On to `CC1CCn2c(nc3cc(C(=O)N4CCN(c5ncccn5)CC4)ccc32)C1` (stereo not drawn), for which the RP-LC retention time was 593 s.

The molecule `O=C(O)C1CCCN1C(=O)c1ccc(N2C(=O)C3C4C=CC(C4)C3C2=O)cc1` (stereo not drawn) displayed an RP-LC retention time of 642 s.

The molecule `CC(=O)N1CCCC(CCc2nnc(C3CCOCC3)o2)C1` (stereo not drawn) yielded an RP-LC retention time of 608 s.

`Cc1[nH]ncc1CNC(=O)c1ccc2nc(Cc3ccccc3F)oc2c1` gave an RP-LC retention time of 689 s.

As to `Cc1ccc(-c2nc(Cn3nnc(C(=O)NCc4ccco4)c3C)c(C)o2)cc1`, the RP-LC retention time turned out to be 1000 s.

In turn, `CC1=C(C(=O)N2CC(c3noc(COc4ccc(C)cc4)n3)C2)C2(CCCCC2)OC1=O` registered an RP-LC retention time of 1010 s.

The molecule `Cc1ccc(-c2ccc(-n3nc(C)c(S(=O)(=O)Nc4ccc5c(c4)OCCO5)c3C)nn2)cc1C` displayed an RP-LC retention time of 1100 s.

`COc1ccc(OC)c(NC(=O)C2CCN(c3cc(N4CCSCC4)ncn3)CC2)c1`: the RP-LC retention time worked out at 694 s.

Take `COc1ccc(-c2ccnc3nc(Cc4cc(F)cc(F)c4)nn23)c(F)c1`: the RP-LC retention time came out at 973 s.

For the molecule `Cc1cccc(C)c1NC(=O)CN1C(=O)NC(c2ccc(Cl)cc2)C2=C1COC2=O` (stereo not drawn), the RP-LC retention time came out at 747 s.

Molecule `O=C(Cn1nc2n(c1=O)CCCC2)Nc1ccc(F)cc1` returned an RP-LC retention time of 651 s.

In turn, `COc1ccc(N2CC(C(=O)N3CCC(c4noc(-c5ccccc5)n4)CC3)CC2=O)cc1` (stereo not drawn) came in with an RP-LC retention time of 855 s.

`CCC(=O)Nc1ccc2c(c1)CN(C(=O)c1c(F)cccc1F)C(C(=O)N1CCCC1)C2` (stereo not drawn) gave an RP-LC retention time of 700 s.

`Cc1cc(=O)n(CC(=O)Nc2ccccc2C#N)cn1` returned an RP-LC retention time of 571 s.

`Cc1cccc(NC(=O)N2CCCC2c2nc(-c3cccc(F)c3)no2)c1` (stereo not drawn) displayed an RP-LC retention time of 1020 s.

The molecule `COc1ccc(NC(=O)N2C[C@@H]3C[C@H]2C[C@@H]3NC(=O)c2ccccc2)c(OC)c1` registered an RP-LC retention time of 647 s.

For the molecule `Cc1c(C(C)(C(=O)O)c2c(C)n(C)c3ccccc23)c2ccccc2n1C`, the RP-LC retention time is 677 s.

In the case of `CCN1C(=O)COc2ccc(-c3nc(NC(=O)CCC4CCCCC4)sc3C)cc21`, the RP-LC retention time was 1240 s.

Turning to `CCOc1ccccc1CNC(=O)C1CCCN(c2nccnc2Sc2ccccc2)C1` (stereo not drawn), the RP-LC retention time was determined as 1110 s.

For the molecule `O=C1NCCCn2cc(S(=O)(=O)NCc3ccccc3Cl)cc21`, the RP-LC retention time is 686 s.

Take `CSc1nnc(-c2nn(C)c3c2CN(C(=O)c2ccc(C)cc2)CC3)n1C`: the RP-LC retention time was found to be 716 s.

Molecule `Cc1cccc(NC(=O)N(C)CCc2noc(COc3ccccc3)n2)c1` returned an RP-LC retention time of 927 s.

`CCOc1cc(Nc2ccc(NC(=O)c3ccco3)cc2)nc(C)n1` yielded an RP-LC retention time of 591 s.

The molecule `CCc1noc2nc(CCC(=O)NCCOC)nc(N3CCCCC3)c12` yielded an RP-LC retention time of 724 s.

Molecule `O=c1c2nnc3c(-c4ccc(F)cc4)cnn3c2ccn1CCc1c[nH]c2ccc(F)cc12` gave an RP-LC retention time of 950 s.

As to `COc1ccc2c(CCNC(=O)c3ccc(F)cc3)c[nH]c2c1`, the RP-LC retention time came to 778 s.

On to `Cc1nc(-c2ccccc2)nn1C1CCN(S(=O)(=O)c2ccccc2C(F)(F)F)C1` (stereo not drawn), for which the RP-LC retention time was determined as 897 s.

Take `O=C(Cn1cnc2nc(N3CCC(C(=O)NC4CC4)CC3)sc2c1=O)Nc1ccccc1F`: the RP-LC retention time came to 885 s.

Take `O=C(Nc1ccccc1F)C1CCCN(S(=O)(=O)c2cc(-c3noc(C4CCC4)n3)cs2)C1` (stereo not drawn): the RP-LC retention time is 1160 s.

As for `O=C(c1ccsc1)N1CCCC1(CO)Cc1ccccc1` (stereo not drawn), the RP-LC retention time was determined as 819 s.

`Cc1ccc(NC(=O)Cn2cnc3nc(N4CCCC(C(=O)NC(C)C)C4)sc3c2=O)c(C)c1` (stereo not drawn) gave an RP-LC retention time of 710 s.

The molecule `COc1cccc(Cn2c(C(=O)N3CCC(C(=O)NCc4ccc(C)o4)CC3)cc3ccsc32)c1` displayed an RP-LC retention time of 970 s.

`O=C(NCCc1cccs1)C1CCN(Cc2cc3ccccc3n2Cc2ccc(Cl)cc2)CC1`: the RP-LC retention time came to 846 s.

`Cc1ccc(Nc2c(-c3cccc(O)c3)nc3cnccn23)cc1Cl` had an RP-LC retention time of 829 s.

In turn, `COc1ccc(OCc2noc(CNC(=O)C(C)n3nnc4ccccc4c3=O)n2)cc1` (stereo not drawn) displayed an RP-LC retention time of 768 s.

`COc1cccc(NS(=O)(=O)c2cc(-c3cc(C(F)(F)F)on3)sc2C)c1` returned an RP-LC retention time of 1110 s.

As for `Cc1ccc(NC(=O)Cn2cc3c(n2)CCC(C)C3)c(Cl)c1` (stereo not drawn), the RP-LC retention time was 1110 s.

As to `Cn1c(=O)oc2cc(-c3noc(-c4cc(F)ccc4Cl)n3)ccc21`, the RP-LC retention time was 1090 s.

The molecule `CN1C(=O)CCc2cc(NS(=O)(=O)c3ccc(Br)s3)ccc21` gave an RP-LC retention time of 801 s.

`CCc1ccc(C2=C(C)C(N3CCCN(C(=O)C4CCCO4)CC3)=NS2(=O)=O)cc1` (stereo not drawn) came in with an RP-LC retention time of 778 s.

`Cc1ccc(-c2cn3ccccc3n2)cc1NS(=O)(=O)c1ccccc1` yielded an RP-LC retention time of 630 s.

In turn, `COc1ccc(NC(=O)N2CCN(c3cc(C)nc(N4CCCC4)n3)CC2)c(C)c1` gave an RP-LC retention time of 692 s.

Take `O=C(NCCn1nc(-n2cccn2)ccc1=O)C1(c2ccccc2)CCOCC1`: the RP-LC retention time stood at 635 s.

With `O=S(=O)(c1ccc2nncn2c1)N(Cc1ccccc1)c1cccc(F)c1`, the RP-LC retention time stood at 851 s.

Turning to `COc1ccc(N2C(=O)CCC(C(=O)NCCCN3CCC(C)CC3)C2c2ccc(F)cc2)cc1` (stereo not drawn), the RP-LC retention time was 605 s.

The molecule `O=C(NCc1csc(-c2ccccc2)n1)[C@H]1CCCN1C(=O)c1ccc(Br)cc1` gave an RP-LC retention time of 866 s.

In turn, `C=C(C)[C@@H]1CC=C(C(=O)O)CC1` had an RP-LC retention time of 875 s.

On to `Cc1ccc(NC(=O)Nc2cccn3nc(C(C)C)nc23)cc1`, for which the RP-LC retention time was found to be 964 s.

In the case of `COc1ccc(-c2noc(-c3nn(-c4cccc(OC)c4)ccc3=O)n2)cc1`, the RP-LC retention time stood at 876 s.

Turning to `O=C(NC1CC(=O)N(C2CC2)C1)c1ccc(Cl)s1` (stereo not drawn), the RP-LC retention time amounted to 639 s.

On to `CC1CCCCN1CCCNC(=O)CCCn1c(=O)c2cccn2c2ccc(Br)cc21` (stereo not drawn), for which the RP-LC retention time was found to be 674 s.

With `COC(=O)c1sccc1NC(=O)N1CCc2c([nH]c3ccccc23)C1c1ccc(OC)cc1` (stereo not drawn), the RP-LC retention time was determined as 1230 s.

On to `CCn1c(=O)c(N2CCC(NC(=O)Nc3ccc(Br)cc3)CC2)nc2ccccc21`, for which the RP-LC retention time amounted to 1020 s.

With `CN1CCN(CCCNC(=O)Cn2c(=O)c3cccn3c3ccc(F)cc32)CC1`, the RP-LC retention time came out at 589 s.

On to `CCN(CC)C(=O)c1ccc2c(c1)N(CC(=O)NCCN1CCCCCC1)C(=O)CO2`, for which the RP-LC retention time was 603 s.

In turn, `CCCNC(=O)c1nnc(-c2ccc(S(=O)(=O)N3CCOCC3)cc2)o1` came in with an RP-LC retention time of 724 s.

In the case of `Cc1noc(CNC(=O)CCCN2C(=O)c3ccccc3C2=O)n1`, the RP-LC retention time was found to be 633 s.
